The source of these data is patent publication US11844782B2, “Aqueous composition comprising dantrolene” (SPEPHARM AG, priority 2015, dated 2023).

Counter-ions that a name gives are not always drawn.

This data set can be described thus: Solubility of dantrolene sodium salt with cyclodextrins at pH 6.0 to 10.0 (FIGS. 1-5, 11, 12). The class given is physicochemical. The following applies: pH 9; 2-hydroxypropyl-β-cyclodextrin 50 mg/ml, dantrolene sodium salt 1 mg/ml. The method, then: In these experiments four different cyclodextrins were tested in combination with dantrolene sodium salt. The concentration of the cyclodextrin compound was 50 mg/ml and the concentration of dantrolene sodium salt was 1 mg/ml. The pH values were adjusted by using a buffer composed of phosphate 25 mM and Tromethamine 25 mM in water to reach pH 6.0, 7.0, 8.0, 9.0 and 10.0, respectively. The obtained solutions were stored at room temperature and examined over the course of 10 days. The solubility of dantrolene sodium salt was determined after 24 and 48 hours. The solutions were analyzed by visual observation, whilst the content of the dantrolene sodium salt and the degradation profile were determined by HPLC and pH value monitoring.
Dantrolene content and degradation profiles were determined on an Agilent Series 1100 HPLC equipment (Agilent Technologies Inc, Santa Clara, CA, USA) fitted with a quaternary pump, an autosampler, a diode-array detector and a thermostated column compartment. Samples were analyzed on a Kinetex XB-C18 column (75×4.6 mm, 2.6 μm, Phenomenex) with mobile phases consisting of water with 0.1% formic acid (A) and acetonitrile with 0.1% formic acid (B) using a linear gradient from 15% to 45% (B) in 12 minutes. […]

In the case of `O=C1CN(/N=C/c2ccc(-c3ccc([N+](=O)[O-])cc3)o2)C(O)=N1` [dantrolene salt, dantrolene sodium salt], the “solubility of the dantrolene salt” value is given as “almost complete solubility”.
